Test results as given in patent publication US10898475B2, “Bach1 inhibitors in combination with Nrf2 activators and pharmaceutical compositions thereof” (vTv Therapeutics LLC, priority 2014, dated 2021).

Test system: HMOX1 in Normal Human Lung Fibroblasts (NHLF)
Assay: HMOX1 Protein Expression (immunostaining, fold induction or % positive cells over DMSO)
Details: for Hill slope of DMF dose response curves in Table 2: % Positive HMOX
Experimental: Normal Human Lung Fibroblasts (NHLF) obtained from Lonza were cultured in T-225 flasks using conditions recommended by the vendor (FGM-2 medium supplemented with 2% fetal bovine serum (FBS), fibroblast growth factor (hFGF-B) 0.5 mL, insulin 0.5 mL, and gentamicin/amphotericin-B 0.5 mL at 37° C. in a humidified atmosphere of 5% CO2).
For assays, cell were thawed and placed into culture in T225 flasks, grown to be 80% confluent, and harvested as described by the vendor. NHLF cells (2.5×10^4 cells per well) were plated in 384 well optilux tissue culture (BD) plates and incubated overnight in media prior to exposure to compound. Cells were incubated with DMSO or various combinations of either an Nrf2 Activator (DMF (dimethyl fumarate)/CDDO-Me) or a Bach1 Inhibitor for 16-18 hr. Cells were then fixed and permeabilized prior to incubation with HMOX1 antibody (abcam; 1:300 dilution in 1% BSA in PBS) for 1 hour. Cells were then washed and incubated with a solution of fluorescently-coupled goat anti-mouse antibody (Alexa 488 1:400 dilution Invitrogen) and Hoechst nuclear stain (1:2000; Invitrogen) in PBS containing 1% BSA for 1 hr. Immunostaining was detected using a GE InCell 2000 instrument at the following wavelengths: Hoechst Ex/Em 360/535 and Alexa 488 Ex/Em 480/535. Results were analyzed using GE InCell Analyzer software and represented as the increase fold of HMOX1 induction (Fold induction/FI) or the percentage of HMOX1 positive (% positive) cells over DMSO.

## COCCNC(=O)c1cnc2c(c1)nc(Nc1nc3ccc(OC(F)(F)F)cc3s1)n2C [HPP-B, 3-Methyl-2-(6-trifluoromethoxy-benzothiazol-2-ylamino)-3H-imidazo[4,5-b]pyridine-6-carboxylic acid (2-methoxy-ethyl)-amide]
Bach1 Inhibitor Conc. 0.019 uM
  Hill slope of DMF dose response curves in Table 2: 2.14
Bach1 Inhibitor Conc. 0.039 uM
  Hill slope of DMF dose response curves in Table 2: 1.87
Bach1 Inhibitor Conc. 0.078 uM
  Hill slope of DMF dose response curves in Table 2: 1.25
Bach1 Inhibitor Conc. 0.156 uM
  Hill slope of DMF dose response curves in Table 2: 1.12
Cpd. 0.019 uM, DMF 0 uM
  % Cells Positive HMOX: 2.31%
  Fold Induction of HMOX: 1.24 fold
Cpd. 0.019 uM, DMF 0.03 uM
  % Cells Positive HMOX: 1.80%
  Fold Induction of HMOX: 1.17 fold
Cpd. 0.019 uM, DMF 0.1 uM
  % Cells Positive HMOX: 2.55%
  Fold Induction of HMOX: 1.13 fold
Cpd. 0.019 uM, DMF 0.3 uM
  % Cells Positive HMOX: 8.27%
  Fold Induction of HMOX: 1.43 fold
Cpd. 0.019 uM, DMF 1 uM
  % Cells Positive HMOX: 7.52%
  Fold Induction of HMOX: 1.57 fold
Cpd. 0.019 uM, DMF 3 uM
  % Cells Positive HMOX: 54.65%
  Fold Induction of HMOX: 2.98 fold
Cpd. 0.019 uM, DMF 10 uM
  % Cells Positive HMOX: 92.63%
  Fold Induction of HMOX: 4.94 fold
Cpd. 0.019 uM, DMF 30 uM
  % Cells Positive HMOX: 84.93%
  Fold Induction of HMOX: 4.23 fold
Cpd. 0.039 uM, DMF 0 uM
  % Cells Positive HMOX: 5.30%
  Fold Induction of HMOX: 1.45 fold
Cpd. 0.039 uM, DMF 0.03 uM
  % Cells Positive HMOX: 1.53%
  Fold Induction of HMOX: 1.07 fold
Cpd. 0.039 uM, DMF 0.1 uM
  % Cells Positive HMOX: 2.54%
  Fold Induction of HMOX: 1.08 fold
Cpd. 0.039 uM, DMF 0.3 uM
  % Cells Positive HMOX: 13.04%
  Fold Induction of HMOX: 1.59 fold
Cpd. 0.039 uM, DMF 1 uM
  % Cells Positive HMOX: 23.13%
  Fold Induction of HMOX: 1.97 fold
Cpd. 0.039 uM, DMF 3 uM
  % Cells Positive HMOX: 75.79%
  Fold Induction of HMOX: 2.84 fold
Cpd. 0.039 uM, DMF 10 uM
  % Cells Positive HMOX: 91.99%
  Fold Induction of HMOX: 4.86 fold
Cpd. 0.039 uM, DMF 30 uM
  % Cells Positive HMOX: 87.54%
  Fold Induction of HMOX: 4.82 fold
Cpd. 0.078 uM, DMF 0 uM
  % Cells Positive HMOX: 8.23%
  Fold Induction of HMOX: 1.46 fold
Cpd. 0.078 uM, DMF 0.03 uM
  % Cells Positive HMOX: 1.72%
  Fold Induction of HMOX: 1.12 fold
Cpd. 0.078 uM, DMF 0.1 uM
  % Cells Positive HMOX: 7.05%
  Fold Induction of HMOX: 1.21 fold
Cpd. 0.078 uM, DMF 0.3 uM
  % Cells Positive HMOX: 10.31%
  Fold Induction of HMOX: 1.43 fold
Cpd. 0.078 uM, DMF 1 uM
  % Cells Positive HMOX: 29.42%
  Fold Induction of HMOX: 2.29 fold
Cpd. 0.078 uM, DMF 3 uM
  % Cells Positive HMOX: 55.22%
  Fold Induction of HMOX: 3.12 fold
Cpd. 0.078 uM, DMF 10 uM
  % Cells Positive HMOX: 94.55%
  Fold Induction of HMOX: 5.06 fold
Cpd. 0.078 uM, DMF 30 uM
  % Cells Positive HMOX: 86.84%
  Fold Induction of HMOX: 4.52 fold
Cpd. 0.156 uM, DMF 0 uM
  % Cells Positive HMOX: 11.32%
  Fold Induction of HMOX: 1.96 fold
Cpd. 0.156 uM, DMF 0.03 uM
  % Cells Positive HMOX: 8.51%
  Fold Induction of HMOX: 1.46 fold
Cpd. 0.156 uM, DMF 0.1 uM
  % Cells Positive HMOX: 18.49%
  Fold Induction of HMOX: 1.73 fold
Cpd. 0.156 uM, DMF 0.3 uM
  % Cells Positive HMOX: 30.11%
  Fold Induction of HMOX: 2.06 fold
Cpd. 0.156 uM, DMF 1 uM
  % Cells Positive HMOX: 57.70%
  Fold Induction of HMOX: 2.87 fold
Cpd. 0.156 uM, DMF 3 uM
  % Cells Positive HMOX: 79.63%
  Fold Induction of HMOX: 3.63 fold
Cpd. 0.156 uM, DMF 10 uM
  % Cells Positive HMOX: 99.72%
  Fold Induction of HMOX: 5.58 fold
Cpd. 0.156 uM, DMF 30 uM
  % Cells Positive HMOX: 98.17%
  Fold Induction of HMOX: 4.99 fold
Combination with DMF at concentrations below their maximum effect (Table 2)
  combination effect in terms of the % HMOX positive cells: additive or greater than additive
Upon increasing amounts of the Bach1 Inhibitor
  change of Hill slope of the DMF dose response curve (FIG. 5): reduced
